Test results as given in patent publication US20250326785A1, “SODIUM SALT AND ETHANOLAMINE SALT OF 23-HYDROXYTORMENTIC ACID” (HUYABIO International, LLC, priority 2024, published 2025).
Like-named read-outs stand apart in the source and are kept apart here.

Columns and labels:
[1] = for HPLC Conc./: based on free acid
Source text: pH-dependent solubility of the HBI- 3808 sodium salt of Pattern 2 was studied.
pH dependent solubility of the HBI- 3808 sodium salt of Pattern 5 was studied.

[2] = Stability study at 25° C./60% RH, 40° C./75% RH and 60° C. (XRPD, HPLC purity, impurity tracking); details: for XRPD: number = sodium salt XRPD Pattern; for RRT 0.801 / RRT 0.970 / RRT 1.000 (HBI-3808) / RRT 1.025 (Isomer of HBI-3808) / Total Impurities / RRT 1.935 / RRT 1.767: impurity tracking
Source text: Stability of HBI-3808 Sodium Salt Pattern 2 was studied over 13 weeks.
Table 2F presents impurity tracking results from a 13-week stability study of HBI-3808 sodium salt of Pattern 2. […]

[3] = Dynamic vapor sorption (DVS) analysis; assay type: physicochemical
Protocol: GC analysis indicated residual solvent contents of 2847 ppm methanol; and 27 ppm TBME. […] No residual methanol or TBME was detected due to signal over-lap. […] TG-DSC analysis indicated two weight losses. The first weight loss of 2.3 wt. % was observed between 20-170° C. […] In the DSC thermogram, three endothermic events were observed (FIG. 17I). […] FT-IR (FIG. 17J) and Raman spectra (FIG. 17K) were recorded for reference. […] XRPD pattern of the ethanolamine salt was retained post-DVS (FIG. 17N). […] However, at the end of the experiment the solids on the microscope slide had discolored (FIG. 17O).

[4] = Salt disproportionation study (slurry in water, XRPD of solids, pH of mother liquor); assay type: physicochemical; details: for XRPD of recovered solids: ca. 24 h at 25° C.
Protocol: The pH of the filtered mother liquor was 9.77.
Salt disproportionation studies of ethanolamine salt. […] The pH of the filtered mother liquor was 8.65.
Method: 40 mg of sodium salt of HBI-3808 having a XRPD of Pattern 2, was weighed into a 2 mL push cap vial and a stirrer bar added. 0.2 mL of water was added to the vial and the experiment was stirred for ca. 24 h at 25° C. After 24 h the slurry was filtered by centrifuge filtration and the recovered solids were analyzed by XRPD. The pH of the filtered mother liquor was measured.

[5] = Hydration study in methanol/water aw 0.1, 0.5 and 0.9; assay type: physicochemical
Source text: Hydration studies of ethanolamine salt.

[6] = Varying humidity (VH)-XRPD; assay type: physicochemical; details: 30° C.
Protocol: During the sorption phase, sodium salt Pattern 2 was observed between 40-60% RH. […] A mixture of sodium salt Pattern 2 and 5 was also observed at 80% RH. […] During the second desorption, from 90% RH to 40% RH, sodium salt Pattern 5 was maintained.
VH-XRPD analysis was carried out between 40-0% RH (FIG. 5L).

[7] = 40° C./75% RH (open vial), 2 Weeks
[8] = 40° C./75% RH (open vial), 4 Weeks
[9] = 40° C./75% RH (open vial), 8 Weeks
[10] = 40° C./75% RH (open vial), 13 Weeks

final Measured pH ([1]; FaSSGF): 9.35
HPLC Conc./ ([1]; FaSSGF): >221.2 mg/mL
concentration ([1]; pH 1.2): < 0.1 mg/mL
HPLC Conc./ ([1]; target pH 1.2 chloride buffer, start 200 mg/mL (ethanolamine salt 100 mg/mL)): <0.005 mg/mL
HPLC Conc./ ([1]; target pH 3.0 acetate buffer): 0.006 mg/mL
HPLC Conc./ ([1]; target pH 4.0 acetate buffer): <0.005 mg/mL
HPLC Conc./ ([1]; target pH 6.8 phosphate buffer): 0.4 mg/mL
HPLC Conc./ ([1]; target pH 8.0 phosphate buffer): 15.3 mg/mL
HPLC/ % area ([2]; 25° C./60% RH (open vial), 1 Week): 97.3 % area
HPLC/ % area ([2]; 25° C./60% RH (open vial), 2 Weeks): 97.2 % area
HPLC/ % area ([2]; 25° C./60% RH (open vial), 4 Weeks): 97.3 % area
HPLC/ % area ([2]; 25° C./60% RH (open vial), 8 Weeks): 96.7 % area
HPLC/ % area ([2]; 25° C./60% RH (open vial), 13 Weeks): 97.1 % area
HPLC/ % area ([2]; 40° C./75% RH (open vial), 1 Week): 97.1 % area
HPLC/ % area [2, 7]: 97.0 % area
XRPD [2, 7]: 5
HPLC/ % area [2, 8]: 97.3 % area
XRPD [2, 8]: 5
HPLC/ % area [2, 9]: 96.3 % area
XRPD [2, 9]: 5
HPLC/ % area [2, 10]: 97.0 % area
XRPD [2, 10]: 5
HPLC/ % area ([2]; 60° C. (closed vial), 1 Week): 97.2 % area
XRPD ([2]; 60° C. (closed vial), 1 Week): 2
HPLC/ % area ([2]; 60° C. (closed vial), 2 Weeks): 97.3 % area
XRPD ([2]; 60° C. (closed vial), 2 Weeks): 2
HPLC/ % area ([2]; 60° C. (closed vial), 4 Weeks): 97.3 % area
XRPD ([2]; 60° C. (closed vial), 4 Weeks): 2
HPLC/ % area ([2]; 60° C. (closed vial), 8 Weeks): 96.4 % area
XRPD ([2]; 60° C. (closed vial), 8 Weeks): 2
HPLC/ % area ([2]; 60° C. (closed vial), 13 Weeks): 97.3 % area
RRT 0.801 ([2]; 25° C./60% RH, 1 week): 0.10 % area
RRT 0.970 ([2]; 25° C./60% RH, 1 week): 0.10 % area
RRT 1.000 (HBI-3808) ([2]; 25° C./60% RH, 1 week): 97.31 % area
RRT 1.025 (Isomer of HBI-3808) ([2]; 25° C./60% RH, 1 week): 2.48 % area
Total Impurities ([2]; 25° C./60% RH, 1 week): 2.69 % area
RRT 0.970 ([2]; 25° C./60% RH, 2 weeks): 0.12 % area
RRT 1.000 (HBI-3808) ([2]; 25° C./60% RH, 2 weeks): 97.29 % area
RRT 1.025 (Isomer of HBI-3808) ([2]; 25° C./60% RH, 2 weeks): 2.39 % area
RRT 1.935 ([2]; 25° C./60% RH, 2 weeks): 0.20 % area
Total Impurities ([2]; 25° C./60% RH, 2 weeks): 2.71 % area
RRT 0.970 ([2]; 25° C./60% RH, 4 weeks): 0.11 % area
RRT 1.000 (HBI-3808) ([2]; 25° C./60% RH, 4 weeks): 97.47 % area
RRT 1.025 (Isomer of HBI-3808) ([2]; 25° C./60% RH, 4 weeks): 2.41 % area
Total Impurities ([2]; 25° C./60% RH, 4 weeks): 2.53 % area
RRT 0.970 ([2]; 25° C./60% RH, 8 weeks): 0.10 % area
RRT 1.000 (HBI-3808) ([2]; 25° C./60% RH, 8 weeks): 96.99 % area
RRT 1.025 (Isomer of HBI-3808) ([2]; 25° C./60% RH, 8 weeks): 2.51 % area
RRT 1.767 ([2]; 25° C./60% RH, 8 weeks): 0.29 % area
Total Impurities ([2]; 25° C./60% RH, 8 weeks): 3.01 % area
RRT 0.801 ([2]; 25° C./60% RH, 13 weeks): 0.12 % area
RRT 1.000 (HBI-3808) ([2]; 25° C./60% RH, 13 weeks): 97.33 % area
RRT 1.025 (Isomer of HBI-3808) ([2]; 25° C./60% RH, 13 weeks): 2.37 % area
RRT 1.935 ([2]; 25° C./60% RH, 13 weeks): 0.19 % area
Total Impurities ([2]; 25° C./60% RH, 13 weeks): 2.67 % area
RRT 0.801 ([2]; 40° C./75% RH, 1 week): 0.10 % area
RRT 0.970 ([2]; 40° C./75% RH, 1 week): 0.14 % area
RRT 1.000 (HBI-3808) ([2]; 40° C./75% RH, 1 week): 97.28 % area
RRT 1.025 (Isomer of HBI-3808) ([2]; 40° C./75% RH, 1 week): 2.48 % area
Total Impurities ([2]; 40° C./75% RH, 1 week): 2.72 % area
RRT 0.970 ([2]; 40° C./75% RH, 2 weeks): 0.12 % area
RRT 1.000 (HBI-3808) ([2]; 40° C./75% RH, 2 weeks): 97.26 % area
RRT 1.025 (Isomer of HBI-3808) ([2]; 40° C./75% RH, 2 weeks): 2.40 % area
RRT 1.935 ([2]; 40° C./75% RH, 2 weeks): 0.22 % area
Total Impurities ([2]; 40° C./75% RH, 2 weeks): 2.74 % area
RRT 0.970 ([2]; 40° C./75% RH, 4 weeks): 0.11 % area
RRT 1.000 (HBI-3808) ([2]; 40° C./75% RH, 4 weeks): 97.5 % area
RRT 1.025 (Isomer of HBI-3808) ([2]; 40° C./75% RH, 4 weeks): 2.41 % area
Total Impurities ([2]; 40° C./75% RH, 4 weeks): 2.52 % area
RRT 0.970 ([2]; 40° C./75% RH, 8 weeks): 0.21 % area
RRT 1.000 (HBI-3808) ([2]; 40° C./75% RH, 8 weeks): 96.88 % area
RRT 1.025 (Isomer of HBI-3808) ([2]; 40° C./75% RH, 8 weeks): 2.51 % area
RRT 1.767 ([2]; 40° C./75% RH, 8 weeks): 0.40 % area
Total Impurities ([2]; 40° C./75% RH, 8 weeks): 3.12 % area
RRT 1.000 (HBI-3808) ([2]; 40° C./75% RH, 13 weeks): 97.41 % area
RRT 1.025 (Isomer of HBI-3808) ([2]; 40° C./75% RH, 13 weeks): 2.40 % area
RRT 1.935 ([2]; 40° C./75% RH, 13 weeks): 0.20 % area
Total Impurities ([2]; 40° C./75% RH, 13 weeks): 2.59 % area
RRT 0.801 ([2]; 60° C., 1 week): 0.12 % area
RRT 1.000 (HBI-3808) ([2]; 60° C., 1 week): 97.46 % area
RRT 1.025 (Isomer of HBI-3808) ([2]; 60° C., 1 week): 2.43 % area
Total Impurities ([2]; 60° C., 1 week): 2.54 % area
RRT 0.970 ([2]; 60° C., 2 weeks): 0.12 % area
RRT 1.000 (HBI-3808) ([2]; 60° C., 2 weeks): 97.27 % area
RRT 1.025 (Isomer of HBI-3808) ([2]; 60° C., 2 weeks): 2.41 % area
RRT 1.935 ([2]; 60° C., 2 weeks): 0.20 % area
Total Impurities ([2]; 60° C., 2 weeks): 2.73 % area
RRT 0.970 ([2]; 60° C., 4 weeks): 0.11 % area
RRT 1.000 (HBI-3808) ([2]; 60° C., 4 weeks): 97.49 % area
RRT 1.025 (Isomer of HBI-3808) ([2]; 60° C., 4 weeks): 2.40 % area
Total Impurities ([2]; 60° C., 4 weeks): 2.51 % area
RRT 0.970 ([2]; 60° C., 8 weeks): 0.12 % area
RRT 1.000 (HBI-3808) ([2]; 60° C., 8 weeks): 97.04 % area
RRT 1.025 (Isomer of HBI-3808) ([2]; 60° C., 8 weeks): 2.49 % area
RRT 1.767 ([2]; 60° C., 8 weeks): 0.35 % area
Total Impurities ([2]; 60° C., 8 weeks): 2.96 % area
RRT 1.000 (HBI-3808) ([2]; 60° C., 13 weeks): 97.41 % area
RRT 1.025 (Isomer of HBI-3808) ([2]; 60° C., 13 weeks): 2.41 % area
RRT 1.935 ([2]; 60° C., 13 weeks): 0.18 % area
Total Impurities ([2]; 60° C., 13 weeks): 2.59 % area
RRT 1.000 (HBI-3808) ([2]; T = 0): 97.82 % area
RRT 1.025 (Isomer of HBI-3808) ([2]; T = 0): 2.18 % area
Total Impurities ([2]; T = 0): 2.18 % area
input purity by HPLC ([2]; input material of the stability study (baseline)): 97.2 % area
XRPD of recovered material post-DVS [3]: consistent with sodium salt of Pattern 5
reversibility of mass uptake/loss ([3]; Pattern 2: second DVS cycle): reversible
water (mass) uptake ([3]; at 80% RH/25° C. (Pattern 2: second DVS cycle)): 0.8 wt. %
irreversible mass loss ([3]; first sorption cycle between 60-80% RH): about 2.4 wt. %
pH of the filtered mother liquor [4]: 9.77
XRPD of solids recovered at the end of the experiment [5]: consistent with sodium salt Pattern 2
XRPD pattern during desorption ([6]; 40-0% RH): no change in XRPD Pattern
XRPD pattern during sorption ([6]; at 90% RH): only sodium salt Pattern 5 was observed
SMILES: CC1CCC2(C(=O)[O-])CCC3(C)C(=CCC4C5(C)CC(O)C(O)C(C)(CO)C5CCC43C)C2C1(C)O.[Na+] (centres unmarked) [HBI-3808 sodium salt of Pattern 2, sodium salt of 23-hydroxytormentic acid]
change in chemical purity by HPLC over the stability study ([2]; all conditions (25° C./60% RH; 40° C./75% RH; 60° C.), 13 weeks (Pattern 5: 4 weeks)): no significant decrease in chemical purity
XRPD of recovered solids [4]: consistent with HBI-3808 sodium salt of Pattern 5
XRPD of recovered solids ([4]; listed as sodium salt of HBI-3808 having a XRPD of Pattern 2): consistent with sodium salt of HBI-3808 having a XRPD of pattern 5
XRPD pattern during sorption ([6]; at 70% RH): composite XRPD diffractogram of sodium salt Pattern 2 and 5
